# Source: patent US20080176936A1, “Classes of Compounds that Interact with Integrins” (priority 2005, published 2008)
# Columns and labels:
# [1] = biological target: T1, αllbβ3 integrin (Homo sapiens, UniProt P05106+P08514); test: ELISA: inhibition of binding of αllbβ3 integrin membrane preparation to coated extracellular matrix protein; details: human platelet membrane preparation
# T1 construct: Human platelet membrane preparations were used as a source of αllbβ3 integrin; from tissue; host or cells: human platelets (membrane preparation)
# Summary of the method: (§1)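 Integrin sources were human platelet membrane preparations for αIIbβ3 and WM-115 cells for αVβ3, each preincubated with test compound. Binding to fibrinogen- or vitronectin-coated plates (10 µg/well) was quantified with an anti-integrin β3 antibody and an HRP-coupled secondary antibody using colorimetric detection.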
# [2] = biological target: T2, αVβ3 integrin (Homo sapiens, UniProt P05106+P06756); test: ELISA: inhibition of binding of αVβ3 integrin (source WM-115 cell line) to coated extracellular matrix protein; details: WM-115 cell line as integrin source
# T2 construct: the cell line WM-115 was used as a source of αVβ3 integrin; endogenous in cells; host or cells: WM-115 cell line
# Summary of the method: as §1
# T1 sequence (P08514 32-887 limits assumed): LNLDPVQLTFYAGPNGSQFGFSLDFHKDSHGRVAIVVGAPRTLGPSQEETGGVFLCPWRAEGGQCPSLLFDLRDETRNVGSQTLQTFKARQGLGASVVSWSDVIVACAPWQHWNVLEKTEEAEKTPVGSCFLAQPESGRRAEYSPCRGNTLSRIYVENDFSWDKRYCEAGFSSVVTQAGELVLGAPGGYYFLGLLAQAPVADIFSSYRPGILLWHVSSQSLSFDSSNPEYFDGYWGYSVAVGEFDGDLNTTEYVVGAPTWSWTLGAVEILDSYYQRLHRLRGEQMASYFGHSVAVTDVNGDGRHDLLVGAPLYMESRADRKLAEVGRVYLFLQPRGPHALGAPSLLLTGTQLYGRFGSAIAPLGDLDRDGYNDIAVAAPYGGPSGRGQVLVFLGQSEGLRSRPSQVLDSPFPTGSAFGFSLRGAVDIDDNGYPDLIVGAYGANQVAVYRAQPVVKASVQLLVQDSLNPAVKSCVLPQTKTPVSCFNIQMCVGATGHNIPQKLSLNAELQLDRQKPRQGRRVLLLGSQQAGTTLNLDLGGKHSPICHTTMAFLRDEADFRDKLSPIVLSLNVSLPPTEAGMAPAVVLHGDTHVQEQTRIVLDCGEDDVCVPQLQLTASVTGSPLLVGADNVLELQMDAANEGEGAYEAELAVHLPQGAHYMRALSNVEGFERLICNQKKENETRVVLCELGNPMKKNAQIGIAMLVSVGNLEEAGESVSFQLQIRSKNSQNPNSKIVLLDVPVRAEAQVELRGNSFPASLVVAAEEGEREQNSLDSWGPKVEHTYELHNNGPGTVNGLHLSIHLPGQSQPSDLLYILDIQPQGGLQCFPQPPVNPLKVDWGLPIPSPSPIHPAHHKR
# T1 sequence (P08514 891-1039 partner limits assumed): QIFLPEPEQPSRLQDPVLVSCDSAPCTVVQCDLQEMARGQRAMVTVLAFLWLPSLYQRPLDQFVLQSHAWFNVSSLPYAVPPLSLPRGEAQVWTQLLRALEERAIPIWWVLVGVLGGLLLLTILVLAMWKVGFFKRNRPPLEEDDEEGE
# T1 sequence (P05106 27-788): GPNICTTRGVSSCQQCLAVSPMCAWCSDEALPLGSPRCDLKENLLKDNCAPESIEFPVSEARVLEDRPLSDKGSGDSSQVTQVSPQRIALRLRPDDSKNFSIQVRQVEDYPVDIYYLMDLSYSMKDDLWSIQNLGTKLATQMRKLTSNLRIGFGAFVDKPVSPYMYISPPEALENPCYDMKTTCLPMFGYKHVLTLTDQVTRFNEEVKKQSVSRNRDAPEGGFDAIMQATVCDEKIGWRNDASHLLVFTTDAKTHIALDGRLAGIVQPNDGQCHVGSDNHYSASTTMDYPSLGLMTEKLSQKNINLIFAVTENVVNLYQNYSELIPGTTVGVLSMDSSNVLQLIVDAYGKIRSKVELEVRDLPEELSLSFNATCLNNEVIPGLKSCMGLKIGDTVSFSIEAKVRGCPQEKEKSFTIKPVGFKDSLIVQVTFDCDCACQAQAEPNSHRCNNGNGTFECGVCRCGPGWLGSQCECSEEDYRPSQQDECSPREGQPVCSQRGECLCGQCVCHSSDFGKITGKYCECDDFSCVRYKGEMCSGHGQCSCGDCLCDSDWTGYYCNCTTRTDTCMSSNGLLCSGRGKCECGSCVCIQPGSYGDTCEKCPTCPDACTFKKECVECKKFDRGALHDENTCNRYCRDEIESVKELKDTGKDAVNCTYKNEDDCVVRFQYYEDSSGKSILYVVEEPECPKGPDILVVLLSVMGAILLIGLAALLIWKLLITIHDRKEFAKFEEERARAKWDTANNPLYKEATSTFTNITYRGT
# T2 sequence (P06756 31-889 limits assumed): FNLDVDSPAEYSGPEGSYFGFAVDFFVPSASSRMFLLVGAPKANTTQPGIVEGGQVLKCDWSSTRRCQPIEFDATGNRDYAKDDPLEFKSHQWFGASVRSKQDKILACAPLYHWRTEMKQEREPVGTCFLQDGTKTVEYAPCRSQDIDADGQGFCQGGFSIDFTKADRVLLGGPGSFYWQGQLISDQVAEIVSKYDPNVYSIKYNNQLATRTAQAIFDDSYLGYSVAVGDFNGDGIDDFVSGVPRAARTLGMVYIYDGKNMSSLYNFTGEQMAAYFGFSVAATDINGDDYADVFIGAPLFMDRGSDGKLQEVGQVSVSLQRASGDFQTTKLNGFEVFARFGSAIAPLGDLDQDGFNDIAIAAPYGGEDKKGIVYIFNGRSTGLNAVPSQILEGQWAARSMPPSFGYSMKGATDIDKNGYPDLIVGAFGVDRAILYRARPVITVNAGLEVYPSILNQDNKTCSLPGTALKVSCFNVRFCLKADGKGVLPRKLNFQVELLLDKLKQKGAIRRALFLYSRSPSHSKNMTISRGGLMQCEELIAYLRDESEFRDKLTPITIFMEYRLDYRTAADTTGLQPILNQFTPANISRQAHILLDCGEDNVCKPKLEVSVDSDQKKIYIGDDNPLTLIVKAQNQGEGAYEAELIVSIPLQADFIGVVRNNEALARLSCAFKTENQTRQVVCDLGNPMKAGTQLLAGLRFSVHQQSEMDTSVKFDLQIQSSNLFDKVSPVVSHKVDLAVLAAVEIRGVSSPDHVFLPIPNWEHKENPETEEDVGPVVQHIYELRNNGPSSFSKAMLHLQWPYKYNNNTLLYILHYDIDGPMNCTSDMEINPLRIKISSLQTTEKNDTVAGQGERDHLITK
# T2 sequence (P06756 891-1048 partner limits assumed): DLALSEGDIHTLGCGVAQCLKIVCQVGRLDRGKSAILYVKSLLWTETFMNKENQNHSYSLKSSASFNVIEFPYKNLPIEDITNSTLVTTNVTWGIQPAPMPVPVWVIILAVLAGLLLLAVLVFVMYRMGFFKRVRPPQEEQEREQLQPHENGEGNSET
# T2 sequence (P05106 27-788): as the sequence (P05106 27-788) above
Compound,INHIBITION @ 250 uM RECEPTOR allBb3 SUBSTRATE FIBRINOGEN [1],INHIBITION 250 uM RECEPTOR allBb3 SUBSTRATE VITRONECTIN [1],INHIBITION 250 uM RECEPTOR aVb3 SUBSTRATE FIBRINOGEN [2]
"CCOC1OC(COCC(=O)O)C(O)C(OCc2ccccc2)C1NC(=O)CNC(=N)N (single isomer, unassigned) [Compound 119]",− (0% to 35% inhibition at 250 micromolar),+++ (81% to 100% inhibition at 250 micromolar),− (0% to 35% inhibition at 250 micromolar)
"CCOC1OC(COCC(=O)O)C(O)C(OCc2ccccc2)C1NC(=O)CCN (single isomer, unassigned) [Compound 120]",+ (36% to 60% inhibition at 250 micromolar),+ (36% to 60% inhibition at 250 micromolar),− (0% to 35% inhibition at 250 micromolar)
"CCOC1OC(COCC(=O)O)C(O)C(OCc2ccccc2)C1NC(=O)CCNC(=N)N (single isomer, unassigned) [Compound 122]",++ (61% to 80% inhibition at 250 micromolar),++ (61% to 80% inhibition at 250 micromolar),− (0% to 35% inhibition at 250 micromolar)
"COC1OC(COCC(=O)O)C(O)C(OCc2ccccc2)C1NC(=O)CCCN (single isomer, unassigned) [Compound 123]",+ (36% to 60% inhibition at 250 micromolar),+++ (81% to 100% inhibition at 250 micromolar),− (0% to 35% inhibition at 250 micromolar)
"COC1OC(COCC(=O)O)C(O)C(OCc2ccccc2)C1NC(=O)CCCN (single isomer, unassigned) [Compound 124]",++ (61% to 80% inhibition at 250 micromolar),+++ (81% to 100% inhibition at 250 micromolar),+ (36% to 60% inhibition at 250 micromolar)
"COC1OC(COCC(=O)O)C(O)C(OCc2ccccc2)C1NC(=O)CCCNC(=N)N (single isomer, unassigned) [Compound 125]",+ (36% to 60% inhibition at 250 micromolar),+++ (81% to 100% inhibition at 250 micromolar),+ (36% to 60% inhibition at 250 micromolar)
"COC(=O)COCC1OC(OC)C(NC(=O)CCCNC(=N)N)C(OCc2ccccc2)C1O (single isomer, unassigned) [Compound 126]",++ (61% to 80% inhibition at 250 micromolar),+++ (81% to 100% inhibition at 250 micromolar),+++ (81% to 100% inhibition at 250 micromolar)
"COC1OC(COCC(=O)O)C(O)C(OCc2ccccc2)C1NC(=O)c1ccc(CN)cc1 (single isomer, unassigned) [Compound 127]",− (0% to 35% inhibition at 250 micromolar),− (0% to 35% inhibition at 250 micromolar),− (0% to 35% inhibition at 250 micromolar)
"COC1OC(COCC(=O)O)C(O)C(OCc2ccccc2)C1NC(=O)c1ccc(CNC(=N)N)cc1 (single isomer, unassigned) [Compound 128]",− (0% to 35% inhibition at 250 micromolar),+++ (81% to 100% inhibition at 250 micromolar),− (0% to 35% inhibition at 250 micromolar)
"COC1OC(COCC(=O)O)C(O)C(OCc2ccccc2)C1NC(=O)c1ccc(CNC(=N)N)cc1 (single isomer, unassigned) [Compound 129]",− (0% to 35% inhibition at 250 micromolar),+++ (81% to 100% inhibition at 250 micromolar),− (0% to 35% inhibition at 250 micromolar)
"COC1OC(COCC(=O)O)C(O)C(OCc2ccccc2)C1NC(=O)c1cc(N)cc(N)c1 (single isomer, unassigned) [Compound 130]",− (0% to 35% inhibition at 250 micromolar),+++ (81% to 100% inhibition at 250 micromolar),− (0% to 35% inhibition at 250 micromolar)
"COC1OC(COCC(=O)O)C(O)C(OCc2ccccc2)C1NC(=O)c1cc(N)cc(N)c1 (single isomer, unassigned) [Compound 131]",+ (36% to 60% inhibition at 250 micromolar),+++ (81% to 100% inhibition at 250 micromolar),− (0% to 35% inhibition at 250 micromolar)
"COC1OC(COCC(=O)O)C(O)C(OCc2ccccc2)C1NC(=O)C1CCNCC1 (single isomer, unassigned) [Compound 134]",+++ (81% to 100% inhibition at 250 micromolar),+++ (81% to 100% inhibition at 250 micromolar),− (0% to 35% inhibition at 250 micromolar)
"COC1OC(COCC(=O)O)C(O)C(OCc2ccccc2)C1NC(=O)C1CCNCC1 (single isomer, unassigned) [Compound 136]",+++ (81% to 100% inhibition at 250 micromolar),,− (0% to 35% inhibition at 250 micromolar)
"COC1OC(COCC(=O)O)C(O)C(OCc2ccccc2)C1NC(=O)C1CCC(CN)CC1 (single isomer, unassigned) [Compound 137]",+++ (81% to 100% inhibition at 250 micromolar),+++ (81% to 100% inhibition at 250 micromolar),++ (61% to 80% inhibition at 250 micromolar)
"COC1OC(COCC(=O)O)C(O)C(OCc2ccccc2)C1NC(=O)C1CCC(CN)CC1 (single isomer, unassigned) [Compound 138]",− (0% to 35% inhibition at 250 micromolar),+++ (81% to 100% inhibition at 250 micromolar),− (0% to 35% inhibition at 250 micromolar)
Nc1cccc(C(=O)N[C@H]2C(O)O[C@H](COCC(=O)O)[C@@H](O)[C@@H]2OCc2ccc(Br)cc2)c1 (some centres unmarked) [Compound 2],++ (61% to 80% inhibition at 250 micromolar),+++ (81% to 100% inhibition at 250 micromolar),++ (61% to 80% inhibition at 250 micromolar)
Nc1cccc(COC[C@H]2OC[C@H](NC(=O)c3ccccc3)[C@@H](OCC(=O)O)[C@@H]2O)c1 [Compound 56],− (0% to 35% inhibition at 250 micromolar),+++ (81% to 100% inhibition at 250 micromolar),++ (61% to 80% inhibition at 250 micromolar)
CCOC1O[C@H](COCc2cccc(N)c2)[C@@H](O)[C@H](OCc2ccc(C(=O)O)cc2)[C@H]1NC(=O)c1ccc(Cl)cc1 (some centres unmarked) [Compound 65],− (0% to 35% inhibition at 250 micromolar),+++ (81% to 100% inhibition at 250 micromolar),− (0% to 35% inhibition at 250 micromolar)
Nc1cccc(COC2C(NC(=O)c3ccc(Cl)cc3)COC(COCC(=O)O)C2O)c1 (centres unmarked) [Compound 80],++ (61% to 80% inhibition at 250 micromolar),+++ (81% to 100% inhibition at 250 micromolar),+ (36% to 60% inhibition at 250 micromolar)
